Data as given in US5112739A, “Enzyme controlled release system” (Polaroid Corporation, priority 1988, dated 1992).

Columns and labels:
Format in all cases: biochemical
[1] = molecular target: β-galactosidase from e. coli (Escherichia coli, UniProt P00722); test: relative release rate of the leaving group on cleavage by β-galactosidase, spectrophotometric; conditions: for APPROXIMATE RELATIVE RATE (release of leaving group, compared with ONPG): 5 × 10^-5 M compound, pH7 tris buffer, 0.01 M NaCl, 0.01 M MgCl2, 25° C., 1.5 IU β-galactosidase, ONPG = 1.0; for release rate, comparison in words: same test as the relative rate table, β-galactosidase from e. coli
Sequence of β-galactosidase from e. coli (P00722 whole entry): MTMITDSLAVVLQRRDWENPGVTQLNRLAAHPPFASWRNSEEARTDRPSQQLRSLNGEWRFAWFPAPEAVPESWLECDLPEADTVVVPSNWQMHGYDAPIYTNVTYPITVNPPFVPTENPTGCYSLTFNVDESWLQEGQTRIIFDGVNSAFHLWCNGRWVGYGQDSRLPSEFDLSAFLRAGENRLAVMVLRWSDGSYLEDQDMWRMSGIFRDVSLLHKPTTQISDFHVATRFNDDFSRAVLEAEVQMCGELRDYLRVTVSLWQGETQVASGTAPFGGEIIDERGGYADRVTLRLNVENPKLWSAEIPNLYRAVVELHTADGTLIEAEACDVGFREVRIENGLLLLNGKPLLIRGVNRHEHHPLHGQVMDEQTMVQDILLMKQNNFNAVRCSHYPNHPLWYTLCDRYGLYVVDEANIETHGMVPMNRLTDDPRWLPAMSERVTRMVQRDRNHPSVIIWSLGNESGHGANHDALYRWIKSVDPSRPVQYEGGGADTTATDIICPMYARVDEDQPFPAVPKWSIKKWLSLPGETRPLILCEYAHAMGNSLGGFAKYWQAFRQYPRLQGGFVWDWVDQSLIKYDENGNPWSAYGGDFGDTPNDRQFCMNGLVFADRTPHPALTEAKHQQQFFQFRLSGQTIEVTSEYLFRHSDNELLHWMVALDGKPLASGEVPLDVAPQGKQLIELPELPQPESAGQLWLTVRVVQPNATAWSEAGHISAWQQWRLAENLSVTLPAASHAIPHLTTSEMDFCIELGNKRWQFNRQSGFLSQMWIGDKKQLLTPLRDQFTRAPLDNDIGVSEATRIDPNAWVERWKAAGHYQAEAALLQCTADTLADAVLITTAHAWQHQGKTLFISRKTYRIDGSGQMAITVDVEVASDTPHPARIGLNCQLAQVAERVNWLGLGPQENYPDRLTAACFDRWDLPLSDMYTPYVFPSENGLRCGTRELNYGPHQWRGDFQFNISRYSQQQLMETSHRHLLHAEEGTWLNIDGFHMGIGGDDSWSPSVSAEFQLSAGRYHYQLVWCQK
Description: The approximate relative release rates of the leaving groups of compounds according to the invention compared with that of o-nitrophenolgalactoside (ONPG) were measured according to the following procedure: a 5 × 10^-5 M solution of the compound was formed in pH7 tris(hydroxymethyl)aminomethane buffer which was 0.01 M in sodium chloride and 0.01 M in magnesium chloride at 25° C. The solution was placed in a 3 ml cuvette and 1.5 IU of β-galactosidase from e. coli introduced. The reaction mixture was monitored in a spectrophotometer at the appropriate wavelength.

[2] = system: anti α-TSH-β-galactosidase conjugate; test: release of dye from compound B by anti α-TSH-β-galactosidase conjugate, optical density and fluorescence; conditions: 100 μl of 0.3 mmolar mixture, pH 7.0 buffer, + 10 μl conjugate, 15 minutes at 37° C., enzyme 1.3 × 10^-12 molar
Description: A 0.3 :mmolar mixture of compound B in a pH 7.0 buffer (0.1 molar NaH2 PO 0.15 molar NaCl, 0.1% Zwittergent 3-14) was stirred at room temperature for 30 minutes and then filtered through a 0.22 μ filter element. The concentration of the compound was calculated by diluting the solution (1:10) to provide an optical density of between 0.39 and 0.41 at 470 nm (ε=20,000).
The solution (100 μl) was added to a microtiter plate well and the optical density was measured at 570 nm with an EIA Auto Reader, Model EL 310 from Bio Tek Instruments. The fluorescence of the same 100 μl volume of the solution was measured with a Titertek Fluoroska® from Flow Laboratories by exciting at 550 nm and reading at 580 nm.
To each of the 100 μl volumes of the solution there were added 10 μl of an anti α-TSH-β-galactosidase conjugate ([…] in β-galactosidase) and the mixtures were incubated for 15 minutes at 37° C. followed by measuring the optical density and fluorescence as described above.

[3] = system: β-galactosidase (e. coli); test: fluorescence rate of compound B as a function of β-galactosidase concentration (standard curve); conditions: 45 μl 0.614 mmolar compound + 5 μl enzyme, pH 7.6, ex 550 nm/em 580 nm, 0 and 2 minutes, average of two

| SMILES | APPROXIMATE RELATIVE RATE (release of leaving group, compared with ONPG) [1] | release rate, comparison in words [1] | also measured |
| --- | --- | --- | --- |
| O=c1ccc2nc3ccc(OCc4ccc(O[C@@H]5O[C@H](CO)[C@H](O)[C@H](O)[C@H]5O)c([N+](=O)[O-])c4)cc3oc-2c1 [A] | 0.25 | significantly different release rates |  |
| Cc1cc(=O)c(C(=O)N2CCOCC2)c2oc3c(C(=O)N4CCOCC4)c(OCc4ccc(O[C@@H]5O[C@H](CO)[C@H](O)[C@H](O)[C@H]5O)c([N+](=O)[O-])c4)cc(C)c3nc1-2 [B] | 0.3 |  | change in optical density ([2]; 570 nm): 0.0594; change in fluorescence ([2]; excitation 550 nm, reading 580 nm): 7266 mV; change in voltage/minute (fluorescence) ([3]; Enzyme Conc. 1 × 10^-11): 2.161 V/min; change in voltage/minute (fluorescence) ([3]; Enzyme Conc. 1 × 10^-12): 0.247 V/min; change in voltage/minute (fluorescence) ([3]; Enzyme Conc. 1 × 10^-13): 0.035 V/min; change in voltage/minute (fluorescence) ([3]; Enzyme Conc. 3 × 10^-12): 0.734 V/min; change in voltage/minute (fluorescence) ([3]; Enzyme Conc. 3 × 10^-13): 0.078 V/min |
| O=c1ccc2nc3ccc(OCc4cc([N+](=O)[O-])ccc4O[C@@H]4O[C@H](CO)[C@H](O)[C@H](O)[C@H]4O)cc3oc-2c1 [C] | 0.005-0.05 | significantly different release rates |  |
| O=C(c1cc(O[C@@H]2O[C@H](CO)[C@H](O)[C@H](O)[C@H]2O)c([N+](=O)[O-])cc1COc1ccc2nc3ccc(=O)cc-3oc2c1)N1CCOCC1 [D] | 0.02 | much slower release rate |  |
| O=C(c1cc2ccc(OCc3ccc(O[C@@H]4O[C@H](CO)[C@H](O)[C@H](O)[C@H]4O)c([N+](=O)[O-])c3)cc2oc1=O)N1CCOCC1 [E] | 0.1-0.5 |  |  |
| O=[N+]([O-])c1ccccc1O[C@@H]1O[C@H](CO)[C@H](O)[C@H](O)[C@H]1O [ONPG, o-nitrophenolgalactoside, reference compound] | 1.0 |  |  |
